# Laboratory results taken from patent publication US12312627B2, “Microorganisms and methods for production of 4-hydroxybutyrate, 1,4-butanediol and related compounds” (priority 2013, dated 2025).
# B1: yjgB: E. coli alcohol dehydrogenase yjgB (GenBank NP_418690.4) identified as carrying backflux activity (protein, UniProt P27250 1-339, looked up)
# Aldehyde reductase Ahr: MSMIKSYAAKEAGGELEVYEYDPGELRPQDVEVQVDYCGICHSDLSMIDNEWGFSQYPLVAGHEVIGRVVALGSAAQDKGLQVGQRVGIGWTARSCGHCDACISGNQINCEQGAVPTIMNRGGFAEKLRADWQWVIPLPENIDIESAGPLLCGGITVFKPLLMHHITATSRVGVIGIGGLGHIAIKLLHAMGCEVTAFSSNPAKEQEVLAMGADKVVNSRDPQALKALAGQFDLIINTVNVSLDWQPYFEALTYGGNFHTVGAVLTPLSVPAFTLIAGDRSVSGSATGTPYELRKLMRFAARSKVAPTTELFPMSKINDAIQHVRDGKARYRVVLKADF
# Assays:
# cytochrome bd oxidase = conditions: cited from earlier work
# cytochrome bo oxidase = cytochrome bo oxidase (Escherichia coli, UniProt P0ABI8); conditions: read-out: Km for O2; cited from earlier work
# Sequence of cytochrome bo oxidase (P0ABI8 whole entry): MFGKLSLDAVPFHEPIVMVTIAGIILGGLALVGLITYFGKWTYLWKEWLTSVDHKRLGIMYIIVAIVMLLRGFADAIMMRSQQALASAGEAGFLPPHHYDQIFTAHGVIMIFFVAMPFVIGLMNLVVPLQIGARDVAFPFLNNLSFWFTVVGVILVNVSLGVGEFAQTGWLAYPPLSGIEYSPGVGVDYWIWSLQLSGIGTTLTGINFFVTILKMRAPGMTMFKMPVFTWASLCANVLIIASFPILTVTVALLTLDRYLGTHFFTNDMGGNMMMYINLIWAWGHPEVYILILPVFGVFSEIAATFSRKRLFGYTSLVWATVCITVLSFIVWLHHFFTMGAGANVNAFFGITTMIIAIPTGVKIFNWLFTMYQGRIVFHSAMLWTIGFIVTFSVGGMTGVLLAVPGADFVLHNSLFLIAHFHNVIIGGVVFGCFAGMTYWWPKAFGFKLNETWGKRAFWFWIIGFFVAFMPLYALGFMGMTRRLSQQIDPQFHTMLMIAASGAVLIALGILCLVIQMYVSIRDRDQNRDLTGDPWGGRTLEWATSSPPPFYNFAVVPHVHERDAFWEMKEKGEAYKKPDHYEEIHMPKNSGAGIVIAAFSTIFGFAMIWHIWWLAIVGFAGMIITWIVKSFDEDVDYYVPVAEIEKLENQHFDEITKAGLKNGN
# Sequence of cytochrome bo oxidase (P0ABJ1 25-315 partner): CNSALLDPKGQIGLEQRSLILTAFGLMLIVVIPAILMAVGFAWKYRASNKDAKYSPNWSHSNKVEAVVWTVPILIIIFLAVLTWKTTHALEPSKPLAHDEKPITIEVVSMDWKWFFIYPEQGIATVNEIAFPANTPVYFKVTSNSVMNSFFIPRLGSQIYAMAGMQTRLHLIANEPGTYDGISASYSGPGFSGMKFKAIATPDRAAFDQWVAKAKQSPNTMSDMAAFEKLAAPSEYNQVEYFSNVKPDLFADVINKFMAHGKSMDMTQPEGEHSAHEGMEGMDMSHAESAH
# Sequence of cytochrome bo oxidase (P0ABJ3 whole entry partner): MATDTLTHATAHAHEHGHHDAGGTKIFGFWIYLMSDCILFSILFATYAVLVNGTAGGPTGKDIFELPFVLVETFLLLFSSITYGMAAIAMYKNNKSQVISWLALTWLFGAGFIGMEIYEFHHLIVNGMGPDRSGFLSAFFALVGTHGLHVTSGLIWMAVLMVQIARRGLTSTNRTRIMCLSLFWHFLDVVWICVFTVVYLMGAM
# Sequence of cytochrome bo oxidase (P0ABJ6 whole entry partner): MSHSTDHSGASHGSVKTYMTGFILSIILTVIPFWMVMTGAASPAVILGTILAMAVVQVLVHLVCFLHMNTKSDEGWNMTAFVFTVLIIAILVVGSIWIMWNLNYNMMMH
# [1] = test system: aminotransferase from Leishmania mexicana; conditions: enzyme expressed in E. coli; cited from earlier work
# [2] = target: T1, endogenous alcohol dehydrogenase backflux activity (Escherichia coli, UniProt P27250); conditions: purified streptavidin-tagged protein, in the presence of NADP+
# T1 sequence (P27250 1-339): B1 Aldehyde reductase Ahr
# Excerpt: The sample was purified while following the backflux activity.
# The yjgB gene was cloned with a streptavidin tag, expressed and purified in order to characterize its properties.
Molecule,activity (considered 100% on tyrosine) [1],also measured
O=O [Sample O2],–,Km (cytochrome bd oxidase; read-out: Km for O2): 0.01 µM; Km (cytochrome bo oxidase): ~1 µM
CC(C)C[C@H](N)C(=O)O [leucine],25%,–
CSCC[C@H](N)C(=O)O [methionine],25%,–
N[C@@H](Cc1ccccc1)C(=O)O [phenylalanine],90%,–
N[C@@H](Cc1c[nH]c2ccccc12)C(=O)O [tryptophan],85%,–
N[C@@H](Cc1ccc(O)cc1)C(=O)O [tyrosine],100%,–
Cytochrome bd-II,–,In vivo sp act (mol O2/mol cytochrome bd/s) (cytochrome bd oxidase; from Bekker et al. 2009): 70 ± 12 mol O2/mol cytochrome bd/s; Vmax (mol O/mol cytochrome bd/s) (cytochrome bd oxidase; from Bekker et al. 2009): 818 ± 75 mol O/mol cytochrome bd/s
B1,–,activity with BDO as a substrate [2]: robust activity
